In patent publication US9561220B2, “Group of alkaloids, the novel autophagic enhancers for treatment of cancers and neurodegenerative conditions thereof” (Macau University of Science and Technology, priority 2014, dated 2017):

Tested on: panel of human cancer cells (HeLa, MCF-7, HepG2, Hep3B, H1299, A549, PC3)
Experiment: cells
Assay type: cell-based
Conditions: Homo sapiens, 72 h, read-out: mean IC50 value (cell cytotoxicity)
Description: The test compounds of liensinine, isoliensinine, dauricine, cepharanthine, hernandezine and thalidezine were dissolved in DMSO at a final concentration of 100 mmol/L and stored at −20° C. Cytotoxicity was assessed using the 3-(4,5-dimethylthiazol-2-yl)-2,5-diphenyltetrazolium bromide assay as described previously. 4000-8000 HeLa (human cervical cancer), MCF-7 (human breast cancer), HepG2 (human liver cancer), Hep3B (human liver cancer), H1299 (human lung cancer), A549 (human lung cancer), PC3 (human prostate cancer) and LO2 (human normal liver) cells were seeded on 96-well plates per well. After overnight pre-incubation, the cells were exposed to different concentrations of liensinine, isoliensinine, dauricine, cepharanthine, hernandezine and thalidezine (0.039-100 μmol/L) for 3 days. Specifically, the following concentrations are used for all of the above alkaloids: […], 0.039 μmol/L. Subsequently, 10 μL of MTT reagents was added to each well and incubated at 37° C. for 4 hours followed by the addition of 100 μL solubilization buffer (10% SDS in 0.01 mol/L HCl) and overnight incubation. Absorbance at 585 nm was determined from each well on the following day. The percentage of cell viability was calculated using the following formula: Cell viability (%)=Cells number treated/Cells number DMSO control×100. Data was obtained from three independent experiments.

With `COc1ccc2cc1Oc1ccc(cc1)C[C@H]1c3c(cc4c(c3Oc3cc5c(cc3OC)CCN(C)[C@@H]5C2)OCO4)CCN1C` [cepharanthine] as the compound, how does the IC50 read?
The IC50 was 4.52 to 61.8 µM.
